Assay results: the NIST ThermoML archive (doi:10.1021/je100526j)
“And” between values parts separate entries of the source, which are not always exact repeats. Equal values may be shown once.

Columns and labels:
[1] = xn = mol fraction of the nth substance listed; conditions: 101 kPa, Liquid
[2] = for mass density: Liquid; for Normal melting temperature: Crystal, visual observation

c1cc[nH]c1 [pyrrole] + c1ccccc1
mass density [kg/m3], [1]
Conditions | 298.15 K | 308.15 K | 318.15 K | 328.15 K | 338.15 K
x1 = 0.0447 | 878.11 | 867.49 | 856.79 | 846 | 835.1
x1 = 0.1287 | 886.6 | 876.17 | 865.66 | 855.06 | 844.34
x1 = 0.2144 | 894.89 | 884.68 | 874.36 | 863.95 | 853.41
x1 = 0.3142 | 904.35 | 894.36 | 884.28 | 874.1 | 863.91
x1 = 0.3916 | 911.83 | 902.01 | 892.11 | 882.08 | 871.95
x1 = 0.503 | 922.04 | 912.44 | 902.77 | 892.98 | 883.08
x1 = 0.5973 | 930.57 | 921.15 | 911.66 | 902.07 | 892.35
x1 = 0.6693 | 936.98 | 927.73 | 918.38 | 908.92 | 899.34
x1 = 0.7371 | 942.99 | 933.85 | 924.62 | 915.29 | 905.82
x1 = 0.8207 | 950.33 | 941.34 | 932.26 | 923.07 | 913.74
x1 = 0.8732 | 954.72 | 945.81 | 936.8 | 927.7 | 918.46
x1 = 0.9214 | 958.96 | 950.13 | 941.21 | 932.19 | 923.04
x1 = 0.979 | 963.65 | 954.92 | 946.08 | 937.17 | 928.12
x1 = 1 | 965.54 | 956.83 | 948.03 | 939.14 | 930.13

C1CCCCC1 [cyclohexane] + c1cc[nH]c1
[1], x2 = 0
Conditions | mass density [kg/m3]
298.15 K | 773.87
308.15 K | 764.38
318.15 K | 754.77
328.15 K | 745.04
338.15 K | 735.18

C1CCCCC1 [cyclohexane]
[2], 101 kPa
Conditions | mass density [kg/m3]
298.15 K | 773.87
308.15 K | 764.38
318.15 K | 754.77
328.15 K | 745.04
338.15 K | 735.18

Conditions | Normal melting temperature [°C]
[2] | 7

c1cc[nH]c1 [pyrrole]
[2], Vibrating tube method
Conditions | mass density [kg/m3]
298.15 K, 100 kPa | 965.54
298.15 K, 101 kPa | 965.54
298.15 K, 500 kPa | 965.71
298.15 K, 1000 kPa | 966
298.15 K, 1500 kPa | 966.3
298.15 K, 2000 kPa | 966.59
298.15 K, 2500 kPa | 966.9
298.15 K, 3000 kPa | 967.19
298.15 K, 4000 kPa | 967.77
298.15 K, 5000 kPa | 968.35
308.15 K, 101 kPa | 956.83
318.15 K, 101 kPa | 948.03
328.15 K, 101 kPa | 939.14
338.15 K, 101 kPa | 930.13

Conditions | Normal melting temperature
[2] | -23.5 °C and -23.4 °C
